These results are taken from patent publication US6358948B1 (American Home Products Corporation, priority 1999, dated 2002).

As usually defined, the melting point is the temperature of the solid-liquid transition.

Compound `CC1OC(C)(C)c2cc(-c3ccc(C#N)n3C(=O)OC(C)(C)C)ccc2N1C(=O)OCC1c2ccccc2-c2ccccc21` (stereo not drawn) [Example 19, 9H-Fluoren-9-ylmethyl-6-[1-(tert-butoxycarbonyl)-5-cyano-1H-pyrrol-2-yl]-2,4,4-trimethyl-2H-3,1-benzoxazine-1(4H)-carboxylate] gave a melting point of 135 to 136 °C. In the case of `CC1(C)CC(=S)Nc2ccc(-c3cccc(Cl)c3)cc21` [Example 43, 6-(3-Chlorophenyl)-4,4-dimethyl-3,4dihydroquinoline-2(1H)-thione] it was 197 to 198 °C; in that of `CC1(C)CC(=O)Nc2ccc(-c3cc(F)cc(C#N)c3)cc21` [Example 41, 3-(4,4-Dimethyl-2-oxo-1,2,3,4-tetrahydroquinolin-6-yl)-5-fluorobenzonitrile], 249 to 250 °C. Then `CC1(C)CC(=O)Nc2ccc(-c3cccc(Cl)c3)cc21` [Example 11, 6-(3-Chloro-phenyl)-4,4-dimethyl-3,4-dihydro-1H-quinolin-2-one], with 211 to 215 °C; and `CC1Nc2ccc(-c3csc(C#N)c3)cc2C(C)(C)O1` (stereo not drawn) [Example 15, 4-(2,4,4-Trimethyl-1,4-dihydro-2H-3,1-benzoxazin-6-yl)thiophene-2carbonitrile], with 175 to 176 °C; and `CC1(C)OC(C(F)(F)F)Nc2ccc(-c3cccc(Cl)c3)cc21` (stereo not drawn) [Example 39, 6-(3-Chlorophenyl)-4,4-dimethyl-2-(trifluoromethyl)-1,4-dihydro-2H-3,1-benzoxazine], with 108 to 109 °C. For `CC1Nc2ccc(-c3cccc(F)c3)cc2C(C)(C)O1` (stereo not drawn) [Example 27, 6-(3-Fluorophenyl)-2,4,4-trimethyl-1,4-dihydro-2H-3,1-benzoxazine], the melting point is 139 to 140 °C. In the case of `CC1(C)CC(=O)Nc2ccc(-c3cccc(F)c3)cc21` [Example 40, 6-(3-Fluorophenyl)-4,4-dimethyl-3,4-dihydroquinolin-2(1H)one] it was 190 to 192 °C; in that of `CN1C(=O)Nc2ccc(-c3cccc(Cl)c3)cc2C1(C)C1CC1` (stereo not drawn) [Example 10, 6-(3-Chlorophenyl)-4-cyclopropyl-3,4-dimethyl-3,4-dihydro-1H-quinazolin-2-one], 193 to 194 °C. Regarding `CC1Nc2ccc(-c3csc(C#N)c3)cc2C2(CCCCC2)O1` (stereo not drawn) [Example 26, 4-(2-Methylspiro[2H-3,1-benzoxazine-4,1′-cyclohexane]-6-yl)2-thiophenecarbonitrile], the melting point was in the range of 111 to 112 °C. For the compound `CC1Nc2ccc(-c3ccc(C#N)n3C)cc2C(C)(C)O1` (stereo not drawn) [Example 22, 1-Methyl-5-(2,4,4-trimethyl-1,4-dihydro-2H-3,1-benzoxazin-6-yl)-1H-pyrrole-2-carbonitrile], the melting point was 195 to 196 °C. Then `CC1Nc2ccc(-c3ccc(C#N)[nH]3)cc2C(C)(C)O1` (stereo not drawn) [Example 20, 5-(2,4,4-Trimethyl-1,4-dihydro-2H-3,1-benzoxazin-6-yl)-1H-pyrrole-2-carbonitrile], with 201 to 202 °C; and `CC1Nc2ccc(-c3cc(F)cc(C#N)c3)cc2C(C)(C)O1` (stereo not drawn) [Example 14, 3-Fluoro-5-(2,4,4-trimethyl-1,4-dihydro-2H-3,1-benzoxazin-6-yl)benzonitrile], with 163 to 164 °C; and `CC1Nc2ccc(-c3ccc(F)c(C#N)c3)cc2C(C)(C)O1` (stereo not drawn) [Example 30, 2-Fluoro-5-(2,4,4-trimethyl-1,4-dihydro-2H-3,1-benzoxazin-6-yl)benzonitrile], with 184 to 186 °C.

`Cc1cc(C#N)sc1-c1ccc2c(c1)C(C)(C)OC(C)N2` (stereo not drawn) [Example 16, 4Methyl-5-(2,4,4-trimethyl-1,4-dihydro-2H-3,1-benzoxazin-6-yl)thiophene-2-carbonitrile] registered a melting point of 145 to 146 °C.
